From patent publication US9260419B2, “Polymorphic salt of a metap-2 inhibitor and methods of making and using same” (Zafgen, Inc., priority 2012, dated 2016)
Where a name gives a salt, the structure may show the parent alone.

Tests used:
[1] = challenge stability study, stability-indicating HPLC assay and physical description; assay type: physicochemical; conditions: sealed vials
Description: A challenge stability study was carried out with amorphous and crystalline forms. Samples were stored in sealed vials and stored at room temperature (25° C.) and 40° C. Samples were assayed at various times with a stability-indicating HPLC assay. Retained potency was determined and physical description was observed.

[2] = relative stability of crystalline forms; assay type: physicochemical
[3] = 25° C., 8 days, hemioxalate salt
[4] = 25° C., 12 days, hemioxalate salt
[5] = 40° C., 5 days, hemioxalate salt

% Purity (by peak area) [1, 3] [%] | Physical Description [1, 3] | % Purity (by peak area) [1, 4] [%] | Physical Description [1, 4] | % Purity (by peak area) [1, 5] [%] | Physical Description [1, 5] | Physical Description ([1]; Time zero) | % Purity (by peak area) ([1]; Time zero, hemioxalate salt) [%] | stability relative to Form A [2] | SMILES
86.58 | White powder | 83.88 | White powder | 86.91 | White powder | Free flowing | 94.98 |  | CO[C@@H]1[C@H](OC(=O)/C=C/c2ccc(OCCN(C)C)cc2)CCC2(CO2)[C@H]1C1(C)OC1CC=C(C)C (some centres unmarked) [Amorphous, 6-O-(4-dimethylaminoethoxy)cinnamoyl fumagillol hemioxalate salt]
97.86 | Free flowing | 97.84 | Free flowing | 97.72 | Free flowing | Free flowing | 97.91 |  | CO[C@@H]1[C@H](OC(=O)/C=C/c2ccc(OCCN(C)C)cc2)CCC2(CO2)[C@H]1C1(C)OC1CC=C(C)C (some centres unmarked) [Crystalline, 6-O-(4-dimethylaminoethoxy)cinnamoyl fumagillol hemioxalate salt]
 |  |  |  |  |  |  |  | metastable relative to Form A | CO[C@@H]1[C@H](OC(=O)/C=C/c2ccc(OCCN(C)C)cc2)CCC2(CO2)[C@H]1C1(C)OC1CC=C(C)C (some centres unmarked) [Form B, 6-O-(4-dimethylaminoethoxy)cinnamoyl fumagillol hemioxalate]
